According to patent US20160024421A1, “IONIC LIQUIDS CONTAINING QUATERNARY PHOSPHONIUM CATIONS AND CARBOXYLATE ANIONS, AND THEIR USE AS LUBRICANT ADDITIVES” (UT-Battelle, LLC, priority 2014, published 2016):
Where two headings read alike, the source gives them in different places.

Experiments:
Assay type in all cases: physicochemical
Density = assay: Density
[1] = Kinematic viscosity (Petrolab Minivis II viscometer); design: unit not given here
Experimental: (§1) Thermogravimetric analysis (TGA) was performed on a thermogravimetric analyzer (TGA-2950, TA instruments) at a 10° C./min heating rate in air. […] The kinematic viscosities were measured on a […] viscometer.

[2] = Thermogravimetric analysis (decomposition temperature)
Experimental: as §1

| Density @ 20° C. (Density; 20° C.) [g/mL] | Kinematic Viscosity @ 40° C. ([1]; 40° C.) | Decomp. temperature ([2]; TGA, 10° C./min heating rate in air) [°C] | Compound | Decomp. temperature [2] [°C] | Density @ 20° C. (Density) [g/mL] | Kinematic Viscosity @ 40° C. [1] |
| --- | --- | --- | --- | --- | --- | --- |
| 0.89 | solid |  | CCCCCCCCCC(=O)[O-].CCCCCCCCCCCCCC[P+](CCCCCC)(CCCCCC)CCCCCC [[P66614][C9H19COO]s] |  |  |  |
| 0.88 |  | 308 | CCCCCCCCCCCCCCCCCC(=O)[O-].CCCCCCCCCCCCCC[P+](CCCCCC)(CCCCCC)CCCCCC [[P66614][C17H35COO]s] |  |  |  |
|  |  |  | trihexyltetradecylphosphonium 2-ethylhexanoate [[P66614][C7H15COO]b] | 308 | 0.88 | 184.8 |
|  |  |  | trihexyltetradecylphosphonium octanoate [[P66614][C7H15COO]s] | 261 |  | 122.2 |
